Measured values as given in the supplement of paper PMC10307832.

Assays:
Test in all cases: relative viability (nuclei count vs DMSO), 5 days (fraction); higher = more cells survive
NCI-H1651 = test system: NCI-H1651
How it was run: (§1)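 Relative viability divides the nuclei count in treated wells by that in vehicle wells. Lung cancer cell lines were seeded in 1536-well plates, dosed by pin tool the next day, and fixed and stained after 5 days in one step with final 0.05% Triton X-100, 1% formaldehyde and 1 ug/ml Hoechst. Dosing was a single drug or a fixed anchor-drug dose plus five library-drug doses (not always all listed) in √10 steps, and values are medians of duplicate plates imaged at 4×.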

NCI-H1734 = test system: NCI-H1734
How it was run: as §1

NCI-H1755 = test system: NCI-H1755
How it was run: as §1

NCI-H2347 = test system: NCI-H2347
How it was run: as §1

NCI-H3122 = test system: NCI-H3122
How it was run: as §1

NCI-H441 = test system: NCI-H441
How it was run: as §1

NCI-H596 = test system: NCI-H596
How it was run: as §1

NCI-H727 = test system: NCI-H727
How it was run: as §1

PC-3 [JPC-3] = test system: PC-3 [JPC-3]
How it was run: as §1

RERF-LC-KJ = test system: RERF-LC-KJ
How it was run: as §1

SK-LU-1 = test system: SK-LU-1
How it was run: as §1

UMC-11 = test system: UMC-11
How it was run: as §1

## Cc1csc(=NC2CCCCC2)n1/N=C/c1ccc(O)c(O)c1O [MIM1] + N=C(N)NC(=N)NCCc1ccccc1 [Phenformin] (partner 250 µM)
NCI-H1651; first compound 6.325 µM
  relative viability: 0.291
NCI-H1651; first compound 20 µM
  relative viability: 0.165
NCI-H1734; first compound 0.2 µM
  relative viability: 0.395
NCI-H1734; first compound 0.6325 µM
  relative viability: 0.375
NCI-H1734; first compound 2 µM
  relative viability: 0.443
NCI-H1734; first compound 6.325 µM
  relative viability: 0.35
NCI-H1734; first compound 20 µM
  relative viability: 0.179
NCI-H1755; first compound 0.2 µM
  relative viability: 0.596
NCI-H1755; first compound 0.6325 µM
  relative viability: 0.597
NCI-H1755; first compound 2 µM
  relative viability: 0.621
NCI-H1755; first compound 6.325 µM
  relative viability: 0.506
NCI-H1755; first compound 20 µM
  relative viability: 0.226
NCI-H2347; first compound 0.2 µM
  relative viability: 0.435
NCI-H2347; first compound 0.6325 µM
  relative viability: 0.32
NCI-H2347; first compound 2 µM
  relative viability: 0.387
NCI-H2347; first compound 6.325 µM
  relative viability: 0.39
NCI-H2347; first compound 20 µM
  relative viability: 0.288
NCI-H3122; first compound 0.2 µM
  relative viability: 0.364
NCI-H3122; first compound 0.6325 µM
  relative viability: 0.371
NCI-H3122; first compound 2 µM
  relative viability: 0.355
NCI-H3122; first compound 6.325 µM
  relative viability: 0.195
NCI-H3122; first compound 20 µM
  relative viability: 0.143
NCI-H441; first compound 0.2 µM
  relative viability: 0.914
NCI-H441; first compound 2 µM
  relative viability: 0.865
NCI-H441; first compound 6.325 µM
  relative viability: 0.543
NCI-H441; first compound 20 µM
  relative viability: 0.203
NCI-H596; first compound 0.2 µM
  relative viability: 0.705
NCI-H596; first compound 0.6325 µM
  relative viability: 0.829
NCI-H596; first compound 2 µM
  relative viability: 0.733
NCI-H596; first compound 6.325 µM
  relative viability: 0.676
NCI-H596; first compound 20 µM
  relative viability: 0.773
NCI-H727; first compound 0.2 µM
  relative viability: 0.513
NCI-H727; first compound 0.6325 µM
  relative viability: 0.559
NCI-H727; first compound 2 µM
  relative viability: 0.481
NCI-H727; first compound 6.325 µM
  relative viability: 0.561
NCI-H727; first compound 20 µM
  relative viability: 0.301
PC-3 [JPC-3]; first compound 0.2 µM
  relative viability: 0.458
PC-3 [JPC-3]; first compound 0.6325 µM
  relative viability: 0.488
PC-3 [JPC-3]; first compound 2 µM
  relative viability: 0.517
PC-3 [JPC-3]; first compound 6.325 µM
  relative viability: 0.469
PC-3 [JPC-3]; first compound 20 µM
  relative viability: 0.361
RERF-LC-KJ; first compound 0.2 µM
  relative viability: 0.447
RERF-LC-KJ; first compound 0.6325 µM
  relative viability: 0.414
RERF-LC-KJ; first compound 2 µM
  relative viability: 0.348
RERF-LC-KJ; first compound 6.325 µM
  relative viability: 0.353
RERF-LC-KJ; first compound 20 µM
  relative viability: 0.303
SK-LU-1; first compound 0.2 µM
  relative viability: 0.533
SK-LU-1; first compound 0.6325 µM
  relative viability: 0.579
SK-LU-1; first compound 2 µM
  relative viability: 0.617
SK-LU-1; first compound 6.325 µM
  relative viability: 0.405
SK-LU-1; first compound 20 µM
  relative viability: 0.393
UMC-11; first compound 0.2 µM
  relative viability: 0.326
UMC-11; first compound 2 µM
  relative viability: 0.336
UMC-11; first compound 6.325 µM
  relative viability: 0.291
UMC-11; first compound 20 µM
  relative viability: 0.201
